Where “and” joins values, the source holds several entries; their conditions need not be identical. Equal values may be shown once.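 Interpolation was linear, between the two tested concentrations surrounding the appropriate level; five concentrations were tested over 48 hours in 96-well plates. Abbreviation: GI50, concentration required for 50% inhibition of growth.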 Calls of active or inactive are those of the source. Rule as the data show it: active = GI50 up to about 1.1 µM and inactive = higher.
Columns and labels:
Test in all cases: NCI anticancer screen, dose series, 48 h
786-0 = test system: 786-0
A549 = test system: A549
ACHN = test system: ACHN
CCRF-CEM = test system: CCRF-CEM
DLD-1 = test system: DLD-1
DMS-114 = test system: DMS-114
DMS-273 = test system: DMS-273
DU-145 = test system: DU-145
HCC 2998 = test system: HCC 2998
HCT-116 = test system: HCT-116
HOP-18 = test system: HOP-18
HOP-62 = test system: HOP-62
KM-20L2 = test system: KM-20L2
LOX IMVI = test system: LOX IMVI
M14 = test system: M14
M19-MEL = test system: M19-MEL
MDA-MB-231 = test system: MDA-MB-231
MDA-MB-435 = test system: MDA-MB-435
MDA-N = test system: MDA-N
Malme-3M = test system: Malme-3M
NCI-H460 = test system: NCI-H460
NCI/ADR-RES = test system: NCI/ADR-RES
PC-3 = test system: PC-3
RXF 393 = test system: RXF 393
SF-268 = test system: SF-268
SF-539 = test system: SF-539
SK-MEL-2 = test system: SK-MEL-2
SN12C = test system: SN12C
SNB-75 = test system: SNB-75
SNB-78 = test system: SNB-78
SW-620 = test system: SW-620
T47D = test system: T47D
TK-10 = test system: TK-10
XF498 = test system: XF498
CAKI-1 = test system: CAKI-1
COLO 205 = test system: COLO 205
EKVX = test system: EKVX
HCT-15 = test system: HCT-15
HOP-92 = test system: HOP-92
HT-29 = test system: HT-29
KM12 = test system: KM12
LXFL 529 = test system: LXFL 529
NCI-H226 = test system: NCI-H226
NCI-H23 = test system: NCI-H23
OVCAR-4 = test system: OVCAR-4
OVCAR-8 = test system: OVCAR-8
RPMI-8226 = test system: RPMI-8226
SF-295 = test system: SF-295
SK-OV-3 = test system: SK-OV-3
SNB-19 = test system: SNB-19
U-251 = test system: U-251
UO-31 = test system: UO-31
A498 = test system: A498
HL-60 = test system: HL-60
K562 = test system: K562
MOLT-4 = test system: MOLT-4
NCI-H522 = test system: NCI-H522
OVCAR-3 = test system: OVCAR-3
OVCAR-5 = test system: OVCAR-5
SK-MEL-28 = test system: SK-MEL-28
UACC-257 = test system: UACC-257
SK-MEL-5 = test system: SK-MEL-5
SR = test system: SR
UACC-62 = test system: UACC-62

## Nc1ncnc2c1ncn2C1OC(CO)C(O)C1O (stereo not drawn)
786-0
  GI50: 43.3 µM (inactive)
A549
  GI50: 132 µM (inactive)
ACHN
  GI50: 40.6 µM (inactive)
CCRF-CEM
  GI50: 36.7 µM (inactive) and 34.3 µM (inactive)
DLD-1
  GI50: > 373 µM (inactive)
DMS-114
  GI50: 68.1 µM (inactive)
DMS-273
  GI50: 103 µM (inactive)
DU-145
  GI50: 22.9 µM (inactive)
HCC 2998
  GI50: 34.9 µM (inactive) and 43.4 µM (inactive)
HCT-116
  GI50: 106 µM (inactive) and 58.2 µM (inactive)
HOP-18
  GI50: 107 µM (inactive)
HOP-62
  GI50: 61.9 µM (inactive) and 70.5 µM (inactive)
KM-20L2
  GI50: 234 µM (inactive)
LOX IMVI
  GI50: 84.3 µM (inactive) and 44.2 µM (inactive)
M14
  GI50: > 100 µM (inactive)
M19-MEL
  GI50: 333 µM (inactive)
MDA-MB-231
  GI50: > 100 µM (inactive)
MDA-MB-435
  GI50: > 100 µM (inactive)
MDA-N
  GI50: > 100 µM (inactive)
Malme-3M
  GI50: 274 µM (inactive)
NCI-H460
  GI50: 22.3 µM (inactive)
NCI/ADR-RES
  GI50: 117 µM (inactive)
PC-3
  GI50: 31 µM (inactive)
RXF 393
  GI50: 104 µM (inactive)
SF-268
  GI50: 232 µM (inactive)
SF-539
  GI50: 179 µM (inactive)
SK-MEL-2
  GI50: 97.1 µM (inactive)
SN12C
  GI50: 136 µM (inactive)
SNB-75
  GI50: 117 µM (inactive)
SNB-78
  GI50: > 450 µM (inactive)
SW-620
  GI50: 153 µM (inactive)
T47D
  GI50: 77.3 µM (inactive)
TK-10
  GI50: > 100 µM (inactive)
XF498
  GI50: > 450 µM (inactive)

## O=c1c2cc(O)ccc2n2nnc3ccc(NCCNCCO)c1c32
786-0
  GI50: 4.86 µM (inactive)
CAKI-1
  GI50: 5.68 µM (inactive)
COLO 205
  GI50: 5.33 µM (inactive)
DMS-114
  GI50: 2.28 µM (inactive)
DMS-273
  GI50: 9.18 µM (inactive)
EKVX
  GI50: 26.2 µM (inactive)
HCT-116
  GI50: 4.62 µM (inactive)
HCT-15
  GI50: 77.8 µM
HOP-18
  GI50: 26.9 µM (inactive)
HOP-92
  GI50: 3.49 µM (inactive)
HT-29
  GI50: 8.77 µM (inactive)
KM12
  GI50: 20.2 µM (inactive)
LOX IMVI
  GI50: 3.23 µM (inactive)
LXFL 529
  GI50: 3.2 µM (inactive)
NCI-H226
  GI50: 2.6 µM (inactive)
NCI-H23
  GI50: 11.7 µM (inactive)
OVCAR-4
  GI50: 5.09 µM (inactive)
OVCAR-8
  GI50: 3.53 µM (inactive)
RPMI-8226
  GI50: 17.1 µM (inactive)
SF-268
  GI50: 1.39 µM (inactive)
SF-295
  GI50: 15.2 µM (inactive)
SF-539
  GI50: 4.56 µM (inactive)
SK-OV-3
  GI50: 5.08 µM (inactive)
SNB-19
  GI50: 4.09 µM (inactive)
U-251
  GI50: 1.27 µM (inactive)
UO-31
  GI50: 26.9 µM (inactive)
XF498
  GI50: 1.71 µM (inactive)

## N#CC(C(=O)/C(=N/NC(=O)c1ccccc1O)C(C#N)c1ccc(Cl)cc1)c1ccc(Cl)cc1 (stereo not drawn)
786-0
  GI50: 15.9 µM (inactive)
A498
  GI50: 11.9 µM (inactive)
A549
  GI50: 24.6 µM (inactive)
ACHN
  GI50: 16 µM (inactive)
CCRF-CEM
  GI50: 4.26 µM (inactive)
COLO 205
  GI50: 29.9 µM (inactive)
DLD-1
  GI50: 11.9 µM (inactive)
DMS-114
  GI50: 23.8 µM (inactive)
EKVX
  GI50: 22.4 µM (inactive)
HCT-116
  GI50: 17.4 µM (inactive)
HCT-15
  GI50: 15.3 µM
HL-60
  GI50: 15.5 µM (inactive)
HOP-18
  GI50: 11.5 µM (inactive)
HOP-62
  GI50: 20.7 µM (inactive)
HT-29
  GI50: 12.1 µM (inactive)
K562
  GI50: 19.2 µM (inactive)
KM-20L2
  GI50: 13.7 µM (inactive)
KM12
  GI50: 15.8 µM (inactive)
LOX IMVI
  GI50: 14.3 µM (inactive)
LXFL 529
  GI50: 12.6 µM (inactive)
M14
  GI50: 19.2 µM (inactive)
M19-MEL
  GI50: 14.1 µM (inactive)
MOLT-4
  GI50: > 10 µM (inactive)
Malme-3M
  GI50: 12.4 µM (inactive)
NCI-H226
  GI50: 16.9 µM (inactive)
NCI-H23
  GI50: 11.5 µM (inactive)
NCI-H460
  GI50: 15.7 µM (inactive)
NCI-H522
  GI50: > 10 µM (inactive)
OVCAR-3
  GI50: 20 µM (inactive)
OVCAR-4
  GI50: 18.1 µM (inactive)
OVCAR-5
  GI50: 20 µM (inactive)
OVCAR-8
  GI50: 13.4 µM (inactive)
RPMI-8226
  GI50: 15.8 µM (inactive)
RXF 393
  GI50: 4.05 µM (inactive)
SF-268
  GI50: 16.6 µM (inactive)
SF-295
  GI50: 16.4 µM (inactive)
SF-539
  GI50: 17.3 µM (inactive)
SK-MEL-28
  GI50: 14.4 µM (inactive)
SK-MEL-2
  GI50: 16.5 µM (inactive)
SK-OV-3
  GI50: 30.8 µM (inactive)
SN12C
  GI50: 13.2 µM (inactive)
SNB-19
  GI50: 15 µM (inactive)
SNB-75
  GI50: 3.56 µM (inactive)
SNB-78
  GI50: 19.5 µM (inactive)
SW-620
  GI50: 15.2 µM (inactive)
TK-10
  GI50: 17.5 µM (inactive)
U-251
  GI50: 10.6 µM (inactive)
UACC-257
  GI50: 14.6 µM (inactive)
UO-31
  GI50: 17.1 µM (inactive)
XF498
  GI50: 13.5 µM (inactive)

## COc1ccc2c(c1)CCC(OS(=O)(=O)CC13CCC(CC1=O)C3(C)C)C2=O (stereo not drawn)
786-0
  GI50: 18.8 µM (inactive)
A498
  GI50: 14.8 µM (inactive)
A549
  GI50: 26.4 µM (inactive)
ACHN
  GI50: 35.8 µM (inactive)
CAKI-1
  GI50: 40.6 µM (inactive)
CCRF-CEM
  GI50: 18.8 µM (inactive)
COLO 205
  GI50: 33.7 µM (inactive)
DLD-1
  GI50: 31.3 µM (inactive)
DMS-114
  GI50: 27.5 µM (inactive)
DMS-273
  GI50: 26.4 µM (inactive)
EKVX
  GI50: > 100 µM (inactive)
HCC 2998
  GI50: 23 µM (inactive)
HCT-116
  GI50: 24.3 µM (inactive)
HCT-15
  GI50: 26.7 µM
HL-60
  GI50: 18.5 µM (inactive)
HOP-18
  GI50: 30.1 µM (inactive)
HOP-62
  GI50: 29.2 µM (inactive)
HOP-92
  GI50: 31.8 µM (inactive)
K562
  GI50: 24.3 µM (inactive)
KM-20L2
  GI50: 19.5 µM (inactive)
KM12
  GI50: 19.5 µM (inactive)
LOX IMVI
  GI50: 15.6 µM (inactive)
LXFL 529
  GI50: 29.8 µM (inactive)
M14
  GI50: 29.5 µM (inactive)
M19-MEL
  GI50: 34.2 µM (inactive)
MOLT-4
  GI50: 20.8 µM (inactive)
Malme-3M
  GI50: 43 µM (inactive)
NCI-H226
  GI50: 29 µM (inactive)
NCI-H23
  GI50: 17.3 µM (inactive)
NCI-H460
  GI50: 18.1 µM (inactive)
NCI-H522
  GI50: 25.2 µM (inactive)
OVCAR-3
  GI50: 25.7 µM (inactive)
OVCAR-4
  GI50: 43.1 µM (inactive)
OVCAR-5
  GI50: 37.2 µM (inactive)
OVCAR-8
  GI50: 18.7 µM (inactive)
RPMI-8226
  GI50: 19.7 µM (inactive)
SF-268
  GI50: 22.1 µM (inactive)
SF-539
  GI50: 21.5 µM (inactive)
SK-MEL-28
  GI50: 36.3 µM (inactive)
SK-MEL-2
  GI50: 23.9 µM (inactive)
SK-MEL-5
  GI50: 17.5 µM (inactive)
SN12C
  GI50: 19 µM (inactive)
SNB-19
  GI50: 41.9 µM (inactive)
SNB-75
  GI50: 31.1 µM (inactive)
SR
  GI50: 24.9 µM (inactive)
SW-620
  GI50: 26.4 µM (inactive)
TK-10
  GI50: 39.6 µM (inactive)
U-251
  GI50: 21.9 µM (inactive)
UACC-257
  GI50: 37.8 µM (inactive)
UACC-62
  GI50: 16.9 µM (inactive)
UO-31
  GI50: 35.6 µM (inactive)
XF498
  GI50: 31.2 µM (inactive)

Reference: ChEMBL document CHEMBL1201862, “PubChem BioAssay data set” (2004)
